Experimental data reported in article PMC9781117, “New 5-Aryl-1,3,4-Thiadiazole-Based Anticancer Agents: Design, Synthesis, In Vitro Biological Evaluation and In Vivo Radioactive Tracing Studies” (Pharmaceuticals, 2022).
≈ marks a conversion by molar mass, not a printed value.

What was measured:
[1] = system: MCF-7 breast adenocarcinoma cells; assay: MTT cytotoxicity assay, MCF-7; format: cell-based, human; settings: for IC50: Homo sapiens, MCF7, MTT, 48 h, means ± SD of three independent experiments; for SI Values MCF-7: selectivity index, MCF-7 over normal Vero cells
Description: (§1) The in vitro cytotoxicity of the synthesized 1,3,4-thiadiazole derivatives against breast adenocarcinoma cells (MCF-7) and human hepatocellular carcinoma (HepG2) cell lines were evaluated by the MTT assay, using 5-Fluorouracil (5-FU) as a positive control.
(§2) Human hepatocellular carcinoma (HepG2) cells and breast adenocarcinoma (MCF7) cells were purchased from the American Type Culture Collection (ATCC, USA). Under 37 °C with 5% CO2 in a humid incubator, cells were propagated using RPMI supplemented with 10% fetal bovine serum (FBS) and 1% v/v penicillin-streptomycin.
(§3) According to Tim Mosmann’s approach, an MTT assay was performed to assess the antiproliferative properties of the compounds. In short, HepG2 or MCF7 cells (0.5 × 105) were grown in flat-bottom 96-well microplates in 180 μL/well RPMI media supplemented with 10% fetal bovine serum, 2μmol/mL L-glutamine, 250 ng/mL fungizone, and 100 units/mL penicillin-streptomycin solutions at 37 °C in a CO2 incubator. Following incubation, 180 μL/well of the new serum-free medium was added to each well after the old media had been withdrawn. After that, cells were exposed to 20 μL of various concentrations of the compounds (50–0.75 μg/mL) and were incubated for 48 h at 37 °C in a humidified 5% CO2 environment. The MTT solution (20 µL/well) was added and incubated for a further 4 h. The plate was agitated at room temperature while acidified isopropanol (160 μL/well) was added to dissolve the formazan crystals. The absorbance at 570 nm was then determined photometrically using the microplate ELISA reader (FLUOstar Omega, BMG, Labtech, Germany). Graph-Pad PRISM version 6 was used to determine the IC50 for each compound.

[2] = system: HepG2 human hepatocellular carcinoma cells; assay: MTT cytotoxicity assay, HepG2; format: cell-based; settings: for IC50: Homo sapiens, MTT, 48 h, means ± SD of three independent experiments; for SI Values HepG2: selectivity index, HepG2 over normal Vero cells
Description: as §1, §2, §3

[3] = system: normal mammalian Vero cells; assay: Cytotoxicity against normal Vero cells; format: cell-based; settings: Chlorocebus sabaeus
HepG2 cells [4] = assay: AO/EB fluorescent stain, apoptotic and necrotic cells, HepG2; format: cell-based, human; settings: HepG2, IC50 concentration, 48 h, vs untreated control cells
Description: (§4) Morphologically, there are three different modes of cell death: apoptosis, autophagy, and necrosis (types I, II, and III, respectively).
(§5) Fluorescence labeling with acridine orange/ethidium bromide (AO/EB) was used to determine the ratio between apoptosis and necrosis to evaluate the mode of cell death. HepG2 and MCF-7 cells were seeded in six-well plates with DMEM media supplemented with 10% FBS and allowed to settle overnight at 37 °C with 5% CO2 in a humidified incubator. […] 5-FU was used as a positive standard for both cell lines. After incubation, cells were collected by trypsinization and stained using a dye solution of AO and EB in PBS (1:1) for 20 min. The cells were examined using fluorescence microscopy. Each sample had at least 500 counted cells, and the percentage of apoptotic or necrotic cells was determined by […] the number of apoptotic or necrotic cells by the total number of cells counted by 100. The experiment was performed three times in triplicate.

HepG2 cells [5] = assay: Annexin V-FITC/PI flow cytometric apoptosis analysis, HepG2; format: cell-based, human; settings: HepG2, IC50 concentration, 48 h
Source text: (§6) Propidium iodide (PI) and annexin-V-FITC were used in a flow cytometric investigation on HepG2 and MCF-7 cells to better understand the manner of cell death caused by 4e and 4i, respectively. […] Apoptosis evasion is one of the hallmarks of cancer progression because the loss of apoptosis control prolongs cancer cell survival and allows for the accumulation of mutations that can promote angiogenesis and cell proliferation, disrupt differentiation, and increase invasiveness throughout tumor progression, thus one of the key purposes of apoptosis is to prevent cancer.
(§7) The apoptotic activity of compounds 4e and 4i was measured using the annexin V fluorescein isothiocyanate (FITC)/propidium iodide (PI) apoptosis detection kit (BioVision, USA, Catalog #: K101-25) following the manufacturer’s instructions. […] Cells were collected by trypsinization, washed twice using PBS and then 1 × 10^5 cells were resuspended in PBS and stained for 15 min at room temperature in the dark with 5 µL Annexin V-FITC and 5 µL PI in 1x binding buffer. Annexin V-FITC binding was analyzed by a BD FACS Calibur flow cytometry (Ex = 488 nm; Em = 530 nm) using a FITC signal detector (FL1) and PI staining by the phycoerythrin emission signal detector (FL2).

HepG2 cells [6] = assay: Cell cycle analysis by flow cytometry (PI), HepG2; format: cell-based, human; settings: HepG2, IC50 concentration, 48 h, vs control
Description: (§8) The cell cycle is made up of several intricately linked processes that enable the cell to develop and multiply. In cancer, the genetic and epigenetic abnormalities in the cell cycle-related genes result in an unchecked proliferation of mutated cells and alteration of cell cycle progression. For further investigation of the inhibitory effects of 4e and 4i compounds on the proliferation of HepG2 and MCF-7 cells, respectively, we examined the cell cycle distribution and DNA content after 48 h of the treatment. […] Consequently, the arrest in the G2/M phase mediates apoptosis via a mitochondrial apoptotic pathway.
(§9) Immediately after incubation, trypsinization was used to collect the cells, which were then washed twice with ice-cold PBS before being fixed in 70% (v/v) ethanol at […], re-suspended with 0.1 mg/mL RNase, stained with […] propidium iodide (PI), and incubated for 1 h. The DNA contents of the cells were then analyzed by flow cytometry using an FL2 (λex/em 493/636 nm) signal detector (Abcam, UK, ab139418).

[7] = system: Bax/Bcl-2 ratio in HepG2 cells; assay: ELISA Bax/Bcl-2 ratio, HepG2; format: cell-based, human; settings: HepG2, IC50, 48 h, compared to control and 5-FU treated cells
Source text: (§10) The overexpression of antiapoptotic proteins, such as Bcl-2, and the underexpression of proapoptotic proteins, such as Bax, are two common ways that the apoptotic pathway is suppressed in cancer. […] Therefore, a rise in Bax expression and a decrease in Bcl-2 can trigger the apoptotic process and eradicate cancer cells. […] This in turn activates the intrinsic pathway of apoptosis; thus, we next examined their effect on caspase 9 levels. Caspases (cysteine aspartyl-specific proteases), a class of cysteine proteins that cleave target proteins, play a role in executing apoptosis. […] Moreover, we evaluated the effect of the two compounds on the vascular endothelial growth factor VEGF expression. VEGF is one of the pro-angiogenic proteins; upon binding to VEGF receptors in the endothelial cells, it activates phosphorylation, causing increased angiogenesis and resulting in abnormal vasculature in the tumor tissue.
(§11) The protein levels of Bax, Bcl2, caspase 9, and VGEF were estimated using an ELISA assay. […] Cells from each group were scraped off and washed with PBS and then cell pellets were collected from each flask. […] The supernatants were then used for ELISA assays in accordance with the manufacturer’s instructions for the ELISA kits (Sunlong Biotech, China), and absorbance and calculations were carried out using an ELISA reader (FLUOstar Omega, BMG, Labtech, Germany).

caspase 9 in HepG2 cells = assay: ELISA caspase 9 level, HepG2; format: cell-based, human; settings: HepG2, IC50, 48 h
Source text: as §10, §11

VEGF in HepG2 cells = assay: ELISA VEGF level, HepG2; format: cell-based, human; settings: HepG2, IC50, 48 h, compared to control and 5-FU treated cells
Source text: as §10, §11

MCF-7 cells [8] = assay: AO/EB fluorescent stain, apoptotic and necrotic cells, MCF-7; format: cell-based, human; settings: MCF-7, IC50 concentration, 48 h, vs untreated control cells
Description: as §4, §5

MCF-7 cells [9] = assay: Annexin V-FITC/PI flow cytometric apoptosis analysis, MCF-7; format: cell-based, human; settings: MCF-7, IC50 concentration, 48 h
Source text: as §6, §7

MCF-7 cells [10] = assay: Cell cycle analysis by flow cytometry (PI), MCF-7; format: cell-based, human; settings: MCF-7, IC50 concentration, 48 h, vs control, p < 0.05
Description: as §8, §9

[11] = system: Bax/Bcl-2 ratio in MCF-7 cells; assay: ELISA Bax/Bcl-2 ratio, MCF-7; format: cell-based, human; settings: MCF-7, IC50, 48 h, compared to control and 5-FU treated cells
Source text: as §10, §11

caspase 9 in MCF-7 cells = assay: ELISA caspase 9 level, MCF-7; format: cell-based, human; settings: MCF-7, IC50, 48 h
Source text: as §10, §11

VEGF in MCF-7 cells = assay: ELISA VEGF level, MCF-7; format: cell-based, human; settings: MCF-7, IC50, 48 h, compared to control and 5-FU treated cells
Source text: as §10, §11

lung A549 cancer cells = system: lung A549 cancer cells; parameters: method as in PMID 31313595; settings: cited from earlier work
[12] = system: cervical HeLa cancer cells; parameters: method as in PMID 31313595; settings: cited from earlier work
[13] = system: breast cancer MCF-7 cells; parameters: method as in PMID 31313595; settings: cited from earlier work

SMILES: CCOc1ccccc1N1CCN(CC(=O)Nc2nnc(-c3ccc(Cl)cc3)s2)CC1 [Compound 4e, N-(5-(4-Chlorophenyl)-1,3,4-Thiadiazol-2-yl)-2-(4-(2-Ethoxyphenyl)Piperazin-1-yl)Acetamide]
- IC50 [1]: 5.36 ± 0.36 µg/mL (≈ 11.7 µM)
- SI Values MCF-7 [1]: 28.79
- fold increase in efficacy relative to parent analogue ([2]; HepG2, 4b vs 4a, 4e vs 4f): 12 fold
- IC50 ([2]; HepG2): 3.13 ± 0.2 µg/mL (≈ 6.83 µM)
- SI Values HepG2 [2]: 49.20
- IC50 [3]: 154 ± 32.2 µg/mL (≈ 337 µM)
- apoptosis and necrosis (AO/EB stain) (HepG2 cells [4]): significantly enhanced apoptosis and necrosis
- main mode of cell death (annexin-V/PI) (HepG2 cells [5]): apoptosis
- total cell death (annexin-V/PI) (HepG2 cells [5]; vs untreated cells): induced significant total cell death
- cell cycle arrest (HepG2 cells [6]): significantly arrested HepG2 cells in the S phase
- Bax/Bcl-2 ratio [7]: significant increase
- caspase 9 level (caspase 9 in HepG2 cells): significantly enhanced
- VEGF level (VEGF in HepG2 cells): significantly suppressed

SMILES: O=C(CN1CCC(Cc2ccccc2)CC1)Nc1nnc(-c2ccc(Cl)cc2)s1 [Compound 4i, 2-(4-Benzylpiperidin-1-yl)-N-(5-(4-Chlorophenyl)-1,3,4-Thiadiazol-2-yl)Acetamide]
- IC50 [1]: 2.32 ± 0.21 µg/mL (≈ 5.43 µM)
- SI Values MCF-7 [1]: 36.70
- IC50 ([2]; HepG2): 6.51 ± 0.03 µg/mL (≈ 15.2 µM)
- SI Values HepG2 [2]: 13.10
- IC50 [3]: 85.29 ± 0.52 µg/mL (≈ 200 µM)
- apoptosis and necrosis (AO/EB stain) (MCF-7 cells [8]): significantly enhanced apoptosis and necrosis
- main mode of cell death (annexin-V/PI) (MCF-7 cells [9]): apoptosis
- total cell death (annexin-V/PI) (MCF-7 cells [9]; vs untreated cells): induced significant total cell death
- cell cycle arrest (MCF-7 cells [10]): induced a significant cell growth arrest for MCF-7 cells at the G2/M phase
- Bax/Bcl-2 ratio [11]: significant increase
- caspase 9 level (caspase 9 in MCF-7 cells): significantly enhanced
- VEGF level (VEGF in MCF-7 cells): significantly suppressed

SMILES: CC(C)(C)c1nc(NC(=O)CN2CCN(c3ccccc3)CC2)sc1Cc1ccc(Cl)cc1 [VII]
- IC50 (lung A549 cancer cells): 0.2 µM
- IC50 [12]: 4.2 µM

SMILES: CCN1CCN(CC(=O)Nc2nc(C(C)(C)C)c(Cc3ccc(Cl)cc3)s2)CC1 [VI]
- IC50 [13]: 12.5 µM
